# In US20230265116A1, “DEGRADATION OF (EGFR) BY CONJUGATION OF EGFR INHIBITORS WITH E3 LIGASE LIGAND AND METHODS OF USE” (BEIGENE, LTD., priority 2020, published 2023):
# Like-named read-outs stand apart in the source and are kept apart here.
# Tests used:
# [1] = system: EGFR Del19/T790M/C797S (H1975-clone #28); experiment: EGFR degradation HTRF assay, H1975-clone #28 DTC cells; format: cell-based
# Protocol: H1975-clone #28(Del19/T790M/C797S) and H1975-clone #23(Del19/C797S). EGFR-Del19/T790M/C797S and EGFR-Del19/C797S were stably expressed in H1975 cell lines by lentivirus-mediated over-expression, respectively. The EGFR over-expressed cells then underwent gene knockout, in which the EGFR targeting sgRNA was designed to only target the endogenous EGFR copies and preserve the exogenous EGFR copies. Followed by the gene knockout, the edited H1975 cells were seeded in 96 well plates at the concentration of 1 cell/well, cultured for about 2 weeks to allow single clones formation. The formed clones were screened by DNA sequencing and whole exon sequencing analysis for the desired edition. H1975-clone #28 and H1975-clone #23 were finally confirmed as homozygous Del19/T790M/C797S EGFR and Del19/C797S EGFR clones, respectively.
# (§1) BaF3 WT(wild type), BaF3-LTC(L858R/T790M/C797S) and BaF3-DTC(Del19/T790M/C797S) cells are treated with compounds diluted in 0.2% DMSO cell culture medium and incubate for 16h, 37° C., 5% CO2, H1975-#36, H1975-#28, H1975-#23 and HCC827 cells are treated with compounds diluted in 0.2% DMSO cell culture medium on day 2, incubate for 16h, 37° C., 5% CO2.the final concentriation of compounds in all assay is start with 10 uM, 5-fold dilution, total 8 doses were included.
# (§2) After 16h treatment, add HTRF lysis buffer to each well; seal the plate and incubate 1 hour at room temperature on a plate shaker; Once the cells are lysed, 16 μL of cell lysate are transferred to a PE 384-well HTRF detection plate; 4 μL of pre-mixed HTRF antibodies are added to each well; Cover the plate with a plate sealer, spin 1000 rpm for 1 min, Incubate overnight at room temperature; Read on BMG PheraStar with HTRF protocol (337 nm-665 nm-620 nm).
# (§3) The inhibition (degradation) percentage of the compound was calculated by the following equation: Inhibition percentage of Compound=100-100×(Signal-low control)/(High control-low control), wherein signal=each test compound group
# (§4) High control=Cell group with added DMSO and without compound, indicating microplate readings without EGFR degradation;
# (§5) Dmax is the maximum percentage of inhibition (degradation).
# (§6) The IC50 (DC50) value of a compound can be obtained by fitting the following equation
# (§7) Y=Bottom+(TOP−Bottom)/(1+((IC50/X)^hillslope))
# (§8) Wherein, X and Y are known values, and IC50, Hillslope, Top and Bottom are the parameters obtained by fitting with software. Y is the inhibition percentage (calculated from the equation), X is the concentration of the compound; IC50 is the concentration of the compound when the 50% inhibition is reached. The smaller the IC50 value is, the stronger the inhibitory ability of the compound is. Vice versa, the higher the IC50 value is, the weaker the inhibitory ability of the compound is; Hillslope represents the slope of the fitted curve, generally around 1*; Bottom represents the minimum value of the curve obtained by data fitting, which is generally 0%±20%; Top represents the maximum value of the curve obtained by data fitting, which is generally 100%±20%. The experimental data were fitted by calculating and analyzing with Dotmatics data analysis software.
# [2] = molecular target: T1, EGFR L858R/T790M/C797S (BaF3-LTC cells) (Homo sapiens, UniProt P00533, C797S/L858R/T790M); experiment: EGFR degradation HTRF assay, BaF3-LTC cells; format: cell-based
# T1 construct: expressed in transfected cells; host or cells: BaF3
# Protocol: as §1, §2, §3, §4, §5, §6, §7, §8
# [3] = H1975 # 28 DTC cells; EGFR degradation, IC50 (DC50) from curve fit; read-out: DC50(nM) H1975 # 28 DTC
# [4] = H1975 # 28 DTC cells; maximum percentage of inhibition (degradation)
# [5] = BaF3-LTC cells; EGFR degradation, IC50 (DC50) from curve fit; read-out: DC50(nM) BaF3-LTC
# [6] = BaF3-LTC cells; maximum percentage of inhibition (degradation); read-out: Dmax (%) BaF3-LTC
# [7] = read-out: DC50(nM) H1975 # 28 DTC; H1975 # 28 DTC cells; EGFR degradation, IC50 (DC50) from curve fit
# [8] = read-out: DC50(nM) BaF3-LTC; BaF3-LTC cells; EGFR degradation, IC50 (DC50) from curve fit
# [9] = read-out: Dmax (%) BaF3-LTC, BaF3-LTC cells; maximum percentage of inhibition (degradation)
# T1 sequence (P00533 25-1210 T790M/C797S/L858R): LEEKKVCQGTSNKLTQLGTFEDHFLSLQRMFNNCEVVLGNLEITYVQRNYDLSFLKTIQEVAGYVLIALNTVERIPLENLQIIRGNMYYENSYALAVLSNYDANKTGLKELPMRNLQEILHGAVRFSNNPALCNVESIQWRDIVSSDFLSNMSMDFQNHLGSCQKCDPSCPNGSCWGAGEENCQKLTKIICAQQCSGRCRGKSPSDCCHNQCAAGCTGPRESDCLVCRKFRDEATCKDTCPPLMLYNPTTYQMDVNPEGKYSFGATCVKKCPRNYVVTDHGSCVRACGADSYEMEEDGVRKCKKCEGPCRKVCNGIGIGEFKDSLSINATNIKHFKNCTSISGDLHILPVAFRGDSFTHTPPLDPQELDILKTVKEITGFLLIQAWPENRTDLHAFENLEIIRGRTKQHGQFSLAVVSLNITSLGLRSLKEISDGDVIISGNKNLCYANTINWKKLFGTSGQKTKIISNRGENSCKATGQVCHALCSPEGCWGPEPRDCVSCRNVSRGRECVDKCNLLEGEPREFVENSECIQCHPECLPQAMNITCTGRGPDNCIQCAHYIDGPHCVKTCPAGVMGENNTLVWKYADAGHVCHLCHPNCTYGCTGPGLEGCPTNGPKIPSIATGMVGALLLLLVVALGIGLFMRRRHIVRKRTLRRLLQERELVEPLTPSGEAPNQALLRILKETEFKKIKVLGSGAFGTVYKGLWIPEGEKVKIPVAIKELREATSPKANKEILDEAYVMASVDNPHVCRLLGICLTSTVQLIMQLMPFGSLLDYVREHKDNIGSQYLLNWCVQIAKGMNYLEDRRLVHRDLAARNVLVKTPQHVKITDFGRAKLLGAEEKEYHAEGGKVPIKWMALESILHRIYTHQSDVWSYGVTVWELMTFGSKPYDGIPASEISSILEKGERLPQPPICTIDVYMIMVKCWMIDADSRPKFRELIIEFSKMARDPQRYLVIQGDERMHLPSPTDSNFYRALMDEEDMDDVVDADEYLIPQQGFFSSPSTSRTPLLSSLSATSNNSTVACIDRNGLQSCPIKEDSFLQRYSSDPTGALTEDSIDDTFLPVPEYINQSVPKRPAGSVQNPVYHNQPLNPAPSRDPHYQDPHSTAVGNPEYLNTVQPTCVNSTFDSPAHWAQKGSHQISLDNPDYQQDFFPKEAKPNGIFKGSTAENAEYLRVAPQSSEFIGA
Structure (SMILES),"DC50 [1, 3]","Dmax (%) H1975 # 28 DTC [1, 4]","DC50 [2, 5]","Dmax [2, 6]","DC50 [1, 7]","DC50 [2, 8]","Dmax [2, 9]"
"CCc1cc(Nc2ncc(Br)c(Nc3ccc4nc(C)ccc4c3P(C)(C)=O)n2)c(OC)cc1N1CCC(N2CCN(C(=O)CC3CN(c4cc(F)c([C@H]5CCC(=O)NC5=O)c(F)c4)C3)CC2)CC1 (single isomer, unassigned) [Example 573]",0.751 nM,81.91%,3.36 nM,97.7%,,,
"CCc1ccc2c(P(C)(C)=O)c(Nc3nc(Nc4cc(CC)c(N5CCC(N6CCN(CCc7cc(C)cc8c7oc(=O)n8C7CCC(=O)NC7=O)CC6)CC5)cc4OC)ncc3Br)ccc2n1 (stereo not drawn) [Example 442, 3-(7-(2-(4-(1-(4-((5-bromo-4-((5-(dimethylphosphoryl)-2-ethylquinolin-6-yl)amino)pyrimidin-2-yl)amino)-2-ethyl-5-methoxyphenyl)piperidin-4-yl)piperazin-1-yl)ethyl)-5-methyl-2-oxobenzo[d]oxazol-3(2H)-yl)piperidine-2,6-dione]",1.05 nM,81.11%,6.53 nM,87%,,,
"CCc1ccc2c(P(C)(C)=O)c(Nc3nc(Nc4cc(CC)c(N5CCC(N6CCN(CCc7cc(F)cc8c7oc(=O)n8C7CCC(=O)NC7=O)CC6)CC5)cc4OC)ncc3Br)ccc2n1 (stereo not drawn) [Example 443, 3-(7-(2-(4-(1-(4-((5-bromo-4-((5-(dimethylphosphoryl)-2-ethylquinolin-6-yl)amino)pyrimidin-2-yl)amino)-2-ethyl-5-methoxyphenyl)piperidin-4-yl)piperazin-1-yl)ethyl)-5-fluoro-2-oxobenzo[d]oxazol-3(2H)-yl)piperidine-2,6-dione]",0.894 nM,82.38%,14.6 nM,81.4%,,,
"CCc1ccc2c(P(C)(C)=O)c(Nc3nc(Nc4cc(CC)c(N5CCC(N6CCN(CCc7c(F)ccc8c7oc(=O)n8C7CCC(=O)NC7=O)CC6)CC5)cc4OC)ncc3Br)ccc2n1 (stereo not drawn) [Example 444, 3-(7-(2-(4-(1-(4-((5-bromo-4-((5-(dimethylphosphoryl)-2-ethylquinolin-6-yl)amino)pyrimidin-2-yl)amino)-2-ethyl-5-methoxyphenyl)piperidin-4-yl)piperazin-1-yl)ethyl)-6-fluoro-2-oxobenzo[d]oxazol-3(2H)-yl)piperidine-2,6-dione]",1.19 nM,79.58%,6.28 nM,79.4%,,,
"CCOc1cc(N2CCC(N3CCN(C(=O)[C@@H]4CCN(c5cccc6c5oc(=O)n6C5CCC(=O)NC5=O)C4)CC3)CC2)c(CC)cc1Nc1ncc(Br)c(Nc2ccc3nc(CC)ccc3c2P(C)(C)=O)n1 (stereo partly drawn) [Example 445, 3-(7-((R)-3-(4-(1-(4-((5-bromo-4-((5-(dimethylphosphoryl)-2-ethylquinolin-6-yl)amino)pyrimidin-2-yl)amino)-5-ethoxy-2-ethylphenyl)piperidin-4-yl)piperazine-1-carbonyl)pyrrolidin-1-yl)-2-oxobenzo[d]oxazol-3(2H)-yl)piperidine-2,6-dione]",,79.2%,,,0.877 nM,5.24 nM,87.7%
"CCc1ccc2c(P(C)(C)=O)c(Nc3nc(Nc4cc(CC)c(N5CCC(N6CCN(C(=O)C7CN(c8cc(F)cc9c8oc(=O)n9C8CCC(=O)NC8=O)C7)CC6)CC5)cc4OC)ncc3Br)ccc2n1 (stereo not drawn) [Example 447, 3-(7-(3-(4-(1-(4-((5-bromo-4-((5-(dimethylphosphoryl)-2-ethylquinolin-6-yl)amino)pyrimidin-2-yl)amino)-2-ethyl-5-methoxyphenyl)piperidin-4-yl)piperazine-1-carbonyl)azetidin-1-yl)-5-fluoro-2-oxobenzo[d]oxazol-3(2H)-yl)piperidine-2,6-dione]",,77.96%,,,0.526 nM,2.27 nM,83.2%
"CCc1ccc2c(P(C)(C)=O)c(Nc3nc(Nc4cc(CC)c(N5CCC(N6CCN(CC7CN(c8cccc9c8oc(=O)n9C8CCC(=O)NC8=O)C7)CC6)CC5)cc4OC)ncc3Br)ccc2n1 (stereo not drawn) [Example 448, 3-(7-(3-((4-(1-(4-((5-bromo-4-((5-(dimethylphosphoryl)-2-ethylquinolin-6-yl)amino)pyrimidin-2-yl)amino)-2-ethyl-5-methoxyphenyl)piperidin-4-yl)piperazin-1-yl)methyl)azetidin-1-yl)-2-oxobenzo[d]oxazol-3(2H)-yl)piperidine-2,6-dione]",0.962 nM,83.19%,6.92 nM,89.5%,,,
"CCc1ccc2c(P(C)(C)=O)c(Nc3nc(Nc4cc(CC)c(N5CCC(N6CCN(CC7CN(c8cc(F)cc9c8oc(=O)n9C8CCC(=O)NC8=O)C7)CC6)CC5)cc4OC)ncc3Br)ccc2n1 (stereo not drawn) [Example 449, 3-(7-(3-((4-(1-(4-((5-bromo-4-((5-(dimethylphosphoryl)-2-ethylquinolin-6-yl)amino)pyrimidin-2-yl)amino)-2-ethyl-5-methoxyphenyl)piperidin-4-yl)piperazin-1-yl)methyl)azetidin-1-yl)-5-fluoro-2-oxobenzo[d]oxazol-3(2H)-yl)piperidine-2,6-dione]",0.937 nM,85.59%,2.99 nM,89.9%,,,
"CCc1ccc2c(P(C)(C)=O)c(Nc3nc(Nc4cc(CC)c(N5CCC(N6CCN(C(=O)C7CCN(c8cccc9c8oc(=O)n9C8CCC(=O)NC8=O)CC7)CC6)CC5)cc4OC)ncc3Br)ccc2n1 (stereo not drawn) [Example 450, 3-(7-(4-(4-(1-(4-((5-bromo-4-((5-(dimethylphosphoryl)-2-ethylquinolin-6-yl)amino)pyrimidin-2-yl)amino)-2-ethyl-5-methoxyphenyl)piperidin-4-yl)piperazine-1-carbonyl)piperidin-1-yl)-2-oxobenzo[d]oxazol-3(2H)-yl)piperidine-2,6-dione]",,77%,,,0.616 nM,2.68 nM,87.7%
"CCc1cc(Nc2ncc(Br)c(Nc3ccc4nc(C)ccc4c3P(C)(C)=O)n2)c(OC2CC2)cc1N1CCC(N2CCN(CCc3cc(F)c([C@H]4CCC(=O)NC4=O)c(F)c3)CC2)CC1 [Example 459, (R)-3-(4-(2-(4-(1-(4-((5-bromo-4-((5-(dimethylphosphoryl)-2-methylquinolin-6-yl)amino)pyrimidin-2-yl)amino)-5-cyclopropoxy-2-ethylphenyl)piperidin-4-yl)piperazin-1-yl)ethyl)-2,6-difluorophenyl)piperidine-2,6-dione]",0.851 nM,86.08%,,,,,
"CCc1cc(Nc2ncc(Br)c(Nc3ccc4nc(C)ccc4c3P(C)(C)=O)n2)c(OC)cc1N1CCC(N2CCN(C(=O)[C@@H]3CCN(c4ccc([C@H]5CCC(=O)NC5=O)cc4)C3)CC2)CC1 [Example 569, (R)-3-(4-((R)-3-(4-(1-(4-((5-bromo-4-((5-(dimethylphosphoryl)-2-methylquinolin-6-yl)amino)pyrimidin-2-yl)amino)-2-ethyl-5-methoxyphenyl)piperidin-4-yl)piperazine-1-carbonyl)pyrrolidin-1-yl)phenyl)piperidine-2,6-dione]",,,,86.5%,,,
